Laboratory results as given in US10071077B2, “Use of enoximone in the treatment of atopic immune-related disorders, in pharmaceutical composition as well as in pharmaceutical preparation” (BREAKTHROUGH MEDICAL RESEARCH B.V., priority 2014, dated 2018).

What was measured:
[1] = test system: HDM driven allergic airway inflammation; assay: House dust mite (HDM) allergic airway inflammation model, treatment strategy 1 (allergy induction); type: in vivo, C57bl/6 mice
Description: (§1) To induce airway inflammation, mice were anaesthetized with isofluorane and treated intratracheally (i.t.) with 1-10 μg house dust mite (HDM; Greer Laboratories) allergen extract in 80 μL phosphate buffered saline (PBS) on day 0 or using PBS only. Ten days later, anesthetized mice were challenged with 1-10 μg HDM in 50 μL PBS intranasally (i.n.) for 5 consecutive days. Mice were sacrificed 24 hr after last challenge and broncho alveolar lavage was performed by flushing the lungs 3 times with 1 ml PBS containing Ethylenediaminetetraacetic acid (EDTA, Sigma-Aldrich).
Different treatment modalities were testes i.e. route and dose. Here we tested the oral versus intratracheal route (FIG. 1) and PBS versus enoximone in a HDM driven allergy model. Enoximone was precipitated from Perfan®. The precipitant was admitted with HDM solution and used as a suspension for intratracheal treatment doses 25 μg and 250 μg or it was used as a suspension admitted in PBS for oral treatment doses 250 μg or 2.5 mg. Mice underwent enoximone treatment only during challenge. Sensitization was performed with 1 μg HDM and challenge with 2.5-5 μg HDM. Twenty-four hours after the last challenge measurements were performed.
Optimal dose of 25 μg enoximone versus diluent (FIG. 5) was admitted with 5 μg HDM solution and used for intratracheal treatment or diluent (10% ethanol+40% glycerol+50% MQ) admitted with 5 μg HDM solution. Controls were treated with enoximone 25 μg admitted with PBS or diluent admitted with PBS. Mice underwent enoximone treatment only during challenge.
(A) Experimental HDM asthma design showing intratracheal sensitization (s) of 1 μg HDM or PBS as control and five intra-nasal challenges (c) with 2.5-5 μg HDM. (B) Quantification of flow cytometric analyses of the indicated populations of eosinophils in bronchoalveolar lavage (BAL) of PBS treated mice (black bars) and enoximone treated mice (white and greyscale bars). Results are expressed as means±SEM. (C) Quantification of flow cytometric analyses of ILC2 numbers in BAL. Results are expressed as means±SEM. Results represent data of one out of 2 experiments with 3-8 animals per group. Statistical evaluations were performed only between different treatments of groups. *p<0.05, **p<0.01).
(§2) (A) Experimental HDM asthma design showing intratracheal sensitization (s) of 1 μg HDM or PBS as control and intra nasal challenge (c) with 5 μg HDM. (B) Quantification of flow cytometric analyses of eosinophils in BAL of PBS treated mice (black bars) and enoximone treated mice (light grey bars). Results are expressed as means±SEM. (C) Quantification of flow cytometric analyses of neutrophils and (D) ILC2s in BAL. Results are expressed as means±SEM. n=4-8 animals per group. Statistical evaluations were performed only between different treatments of groups (*p<0.05 or **p<0.01).

[2] = test system: established HDM allergic airway inflammation; assay: Established HDM allergy model, treatment strategy 2; type: in vivo, C57bl/6 mice; settings: 25 μg enoximone admixed with 5 μg HDM
Description: as §1
C57bl/6 mice were sensitized with 10 μg HDM on day 0 and challenged with 5 μg HDM for 5 days on day 10-14. Then mice were treated with 5 μg HDM admixed with 25 μg enoximone or diluent for 5 days on days 15-19. 24 hr after last challenge measurements were performed.
Next, we attempted to determine whether enoximone is potent enough to suppress allergic inflammation when asthma is already fully established. Animals were challenged with an additional session of 5 challenges with HDM mimicking the situation in asthma patients. Asthma mice and PBS controls were then challenged again on five successive days by instilling a droplet of 50 μl PBS (PBS PBS dil), or HDM (5 μg) in 50 μl PBS (HDM HDM dil) or HDM (5 μg) in 50 μl PBS admixed with enoximone (25 μg) (HDM HDM enox)(FIG. 7A).
as §2, with “[…]” for “1 μg”, “HDM followed by challenge and treatment (ct).” for “HDM.”, “ILC2s, (D) CD3” for “neutrophils”, “(E) macrophages” for “(D) ILC2s”, “groups.” for “groups”

[3] = test system: Human PBMCs stimulated with tetanus toxoid (CD4 T-cells); type: cell-based
[4] = oral or intratracheal enoximone

Structure (SMILES): CSc1ccc(C(=O)c2[nH]c(=O)[nH]c2C)cc1 [enoximone, 1,3-dihydro-4-methyl-5-[4-(methylthio)benzoyl]-2H-imidazol-2-on]
- neutrophil numbers in BAL ([1]; 25 μg enoximone intratracheally, FIG. 6C, same pattern as eosinophils): the same dynamic is observed
- ILC2 cell numbers in BAL ([1]; 25 μg enoximone intratracheally, FIG. 6D, same pattern as eosinophils): the same dynamic is observed
- numbers of BAL eosinophils, HDM/diluent treated mice compared to enoximone treated mice ([1]; 25 μg enoximone solution admitted to 5 μg HDM, intratracheally, FIG. 6B): significantly higher
- allergic airway inflammation in control mice ([1]; PBS/enoximone (25 μg) control mice, no HDM): no signs of allergic airway inflammation
- eosinophilic airway inflammation in control mice ([1]; PBS/enoximone control mice, no HDM): no eosinophilic airway inflammation
- eosinophil numbers in BAL, HDM/PBS treated mice compared to enoximone treated mice ([1]; intratracheally (25 and 250 μg), treatment during challenge, FIG. 5B): significantly higher
- DCs, PBS treated allergy mice compared to enoximone treated mice [1, 4]: significantly higher in the PBS treated allergy mice
- Neutrophils, PBS treated allergy mice compared to enoximone treated mice [1, 4]: significantly higher in the PBS treated allergy mice
- T-cells, PBS treated allergy mice compared to enoximone treated mice [1, 4]: significantly higher in the PBS treated allergy mice
- ILC2 numbers in BAL ([1]; oral or intratracheal enoximone, FIG. 5C): reduced
- numbers of ILC2s in BAL ([2]; days 15-19, FIG. 7C): significant reduction
- numbers of T-cells in BAL ([2]; days 15-19, FIG. 7D): significant reduction
- numbers of macrophages in BAL ([2]; days 15-19, FIG. 7E): significant reduction
- eosinophil numbers in BAL ([2]; days 15-19, started after the first 5 HDM challenges, FIG. 7B): strong significant reductions
- proliferation of CD4 positive T-cells (proportion of divided CD4 T-cells) [3]: significantly reduced
